# Measured values: PubChem BioAssay (NCI)
#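 How tested: cells in 96-well plates exposed to compound for 48 hours at five concentrations. GI50 marks 50% less growth. TGI denotes the concentration required for complete inhibition of growth.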
# Key:
# Assay in all cases: NCI-60 cell line screen, 48 h
# MOLT-4 leukemia = system: MOLT-4 leukemia
# HCT-116 colon = system: HCT-116 colon
# EKVX NSCLC = system: EKVX NSCLC
# MDA-MB-435 = system: MDA-MB-435
# OVCAR-5 ovarian = system: OVCAR-5 ovarian
# M14 melanoma = system: M14 melanoma
# CAKI-1 renal = system: CAKI-1 renal
# MDA-N = system: MDA-N
# LOX IMVI melanoma = system: LOX IMVI melanoma
# SK-MEL-28 melanoma = system: SK-MEL-28 melanoma
# IGROV1 ovarian = system: IGROV1 ovarian
# HCC-2998 colon = system: HCC-2998 colon
# KM12 colon = system: KM12 colon
# A498 renal = system: A498 renal
# SN12C renal = system: SN12C renal
# NCI-H23 lung = system: NCI-H23 lung
# OVCAR-8 ovarian = system: OVCAR-8 ovarian
# SW-620 colon = system: SW-620 colon
# SK-OV-3 ovarian = system: SK-OV-3 ovarian
# BT-549 breast = system: BT-549 breast
# NCI-H226 lung = system: NCI-H226 lung
# ACHN renal = system: ACHN renal
# HT29 colon = system: HT29 colon
# HCT-15 colon = system: HCT-15 colon
# NCI-H460 lung = system: NCI-H460 lung
# OVCAR-3 ovarian = system: OVCAR-3 ovarian
# HOP-92 NSCLC = system: HOP-92 NSCLC
# TK-10 renal = system: TK-10 renal
# SF-268 CNS = system: SF-268 CNS
# 786-0 renal = system: 786-0 renal
# UACC-62 melanoma = system: UACC-62 melanoma
# HOP-62 NSCLC = system: HOP-62 NSCLC
# K-562 leukemia = system: K-562 leukemia
# MCF7 breast = system: MCF7 breast
# HS 578T breast = system: HS 578T breast
# NCI-H522 lung = system: NCI-H522 lung
# U251 CNS = system: U251 CNS
# SK-MEL-5 melanoma = system: SK-MEL-5 melanoma
# PC-3 prostate = system: PC-3 prostate
# SNB-19 CNS = system: SNB-19 CNS
# COLO 205 colon = system: COLO 205 colon
# SNB-75 CNS = system: SNB-75 CNS
# UACC-257 melanoma = system: UACC-257 melanoma
# SR leukemia = system: SR leukemia
# SF-539 CNS = system: SF-539 CNS
# UO-31 renal = system: UO-31 renal
# RPMI-8226 leukemia = system: RPMI-8226 leukemia
# MDA-MB-231 breast = system: MDA-MB-231 breast
# CCRF-CEM leukemia = system: CCRF-CEM leukemia
# NCI/ADR-RES ovarian = system: NCI/ADR-RES ovarian
# OVCAR-4 ovarian = system: OVCAR-4 ovarian
# SF-295 CNS = system: SF-295 CNS
# A549 NSCLC = system: A549 NSCLC
# MALME-3M melanoma = system: MALME-3M melanoma
# DU-145 prostate = system: DU-145 prostate
# RXF 393 renal = system: RXF 393 renal
# SK-MEL-2 melanoma = system: SK-MEL-2 melanoma
# HL-60(TB) leukemia = system: HL-60(TB) leukemia
structure (smiles),measurement,setting,value
O=C1C(=C2SC(c3ccccc3)(c3ccccc3)c3ccccc32)C(=O)c2ccccc21,TGI,MOLT-4 leukemia,> 100 µM
same,TGI,HCT-116 colon,> 100 µM
same,TGI,EKVX NSCLC,> 100 µM
same,TGI,MDA-MB-435,> 100 µM
same,TGI,OVCAR-5 ovarian,> 100 µM
same,TGI,M14 melanoma,> 100 µM
same,TGI,CAKI-1 renal,> 100 µM
same,TGI,MDA-N,> 100 µM
same,TGI,LOX IMVI melanoma,> 100 µM
same,TGI,SK-MEL-28 melanoma,> 100 µM
same,TGI,IGROV1 ovarian,> 100 µM
same,TGI,HCC-2998 colon,> 100 µM
same,TGI,KM12 colon,> 100 µM
same,TGI,A498 renal,> 100 µM
same,TGI,SN12C renal,> 100 µM
same,TGI,NCI-H23 lung,> 100 µM
same,TGI,OVCAR-8 ovarian,> 100 µM
same,TGI,SW-620 colon,> 100 µM
same,TGI,SK-OV-3 ovarian,> 100 µM
same,TGI,BT-549 breast,> 100 µM
same,TGI,NCI-H226 lung,> 100 µM
same,TGI,ACHN renal,> 100 µM
same,TGI,HT29 colon,> 100 µM
same,TGI,HCT-15 colon,> 100 µM
same,TGI,NCI-H460 lung,> 100 µM
same,TGI,OVCAR-3 ovarian,> 100 µM
same,TGI,HOP-92 NSCLC,> 100 µM
same,TGI,TK-10 renal,> 100 µM
same,TGI,SF-268 CNS,> 100 µM
same,TGI,786-0 renal,> 100 µM
same,TGI,UACC-62 melanoma,> 100 µM
same,TGI,HOP-62 NSCLC,> 100 µM
same,TGI,K-562 leukemia,> 100 µM
same,TGI,MCF7 breast,> 100 µM
same,TGI,HS 578T breast,> 100 µM
same,TGI,NCI-H522 lung,> 100 µM
same,TGI,U251 CNS,> 100 µM
same,TGI,SK-MEL-5 melanoma,> 100 µM
same,TGI,PC-3 prostate,> 100 µM
same,TGI,SNB-19 CNS,> 100 µM
same,TGI,COLO 205 colon,> 100 µM
same,TGI,SNB-75 CNS,> 100 µM
same,TGI,UACC-257 melanoma,> 100 µM
same,TGI,SR leukemia,> 100 µM
same,TGI,SF-539 CNS,> 100 µM
same,TGI,UO-31 renal,> 100 µM
same,TGI,RPMI-8226 leukemia,> 100 µM
same,TGI,MDA-MB-231 breast,> 100 µM
same,TGI,CCRF-CEM leukemia,> 100 µM
same,TGI,NCI/ADR-RES ovarian,> 100 µM
same,TGI,OVCAR-4 ovarian,> 100 µM
same,TGI,SF-295 CNS,> 100 µM
same,TGI,A549 NSCLC,> 100 µM
same,TGI,MALME-3M melanoma,> 100 µM
same,TGI,DU-145 prostate,> 100 µM
same,TGI,RXF 393 renal,> 100 µM
CCC(C)C1=NC(C(=O)N/C=C\c2c[nH]c3cc(Br)c(Br)cc23)(C(C)C)NC1=O (stereo unspecified),GI50,MOLT-4 leukemia,15.2 µM
same,TGI,MOLT-4 leukemia,30.3 µM
same,GI50,HCT-116 colon,15.6 µM
same,TGI,HCT-116 colon,31.3 µM
same,GI50,EKVX NSCLC,5.98 µM
same,TGI,EKVX NSCLC,20 µM
same,GI50,MDA-MB-435,12 µM
same,TGI,MDA-MB-435,24.4 µM
same,GI50,OVCAR-5 ovarian,15.4 µM
same,TGI,OVCAR-5 ovarian,29 µM
same,GI50,M14 melanoma,14 µM
same,TGI,M14 melanoma,27.3 µM
same,GI50,CAKI-1 renal,12.2 µM
same,TGI,CAKI-1 renal,26.8 µM
same,GI50,MDA-N,15.4 µM
same,TGI,MDA-N,30 µM
same,GI50,LOX IMVI melanoma,16.6 µM
same,TGI,LOX IMVI melanoma,31.9 µM
same,GI50,SK-MEL-28 melanoma,15 µM
same,TGI,SK-MEL-28 melanoma,32.7 µM
same,GI50,IGROV1 ovarian,6.36 µM
same,TGI,IGROV1 ovarian,19.7 µM
same,GI50,KM12 colon,18.5 µM
same,TGI,KM12 colon,44.3 µM
same,GI50,A498 renal,17.8 µM
same,TGI,A498 renal,35 µM
same,GI50,SN12C renal,18.3 µM
same,TGI,SN12C renal,37.5 µM
same,GI50,NCI-H23 lung,16 µM
same,TGI,NCI-H23 lung,29.4 µM
same,GI50,OVCAR-8 ovarian,32.3 µM
same,TGI,OVCAR-8 ovarian,> 100 µM
same,GI50,SW-620 colon,16.9 µM
same,TGI,SW-620 colon,38.2 µM
same,GI50,SK-OV-3 ovarian,18.6 µM
same,TGI,SK-OV-3 ovarian,34.9 µM
same,GI50,BT-549 breast,23.7 µM
same,TGI,BT-549 breast,71.2 µM
same,GI50,SK-MEL-2 melanoma,12.3 µM
same,TGI,SK-MEL-2 melanoma,26.7 µM
same,GI50,ACHN renal,18.3 µM
same,TGI,ACHN renal,39.6 µM
same,GI50,HT29 colon,18.3 µM
same,TGI,HT29 colon,44.4 µM
same,GI50,HCT-15 colon,28.1 µM
same,TGI,HCT-15 colon,79.6 µM
same,GI50,NCI-H460 lung,12.9 µM
same,TGI,NCI-H460 lung,26.7 µM
same,GI50,OVCAR-3 ovarian,5.38 µM
same,TGI,OVCAR-3 ovarian,18.4 µM
same,GI50,TK-10 renal,18.5 µM
same,TGI,TK-10 renal,35.7 µM
same,GI50,SF-268 CNS,15 µM
same,TGI,SF-268 CNS,30.1 µM
same,GI50,786-0 renal,20.2 µM
same,TGI,786-0 renal,42.9 µM
same,GI50,HL-60(TB) leukemia,33.7 µM
same,TGI,HL-60(TB) leukemia,59.6 µM
same,GI50,UACC-62 melanoma,12 µM
same,TGI,UACC-62 melanoma,26.9 µM
same,GI50,HOP-62 NSCLC,19.8 µM
same,TGI,HOP-62 NSCLC,36.3 µM
same,GI50,K-562 leukemia,16.5 µM
same,TGI,K-562 leukemia,35.8 µM
same,GI50,MCF7 breast,13.6 µM
same,TGI,MCF7 breast,29.6 µM
same,GI50,HS 578T breast,21.4 µM
same,TGI,HS 578T breast,68.4 µM
same,GI50,NCI-H522 lung,13.5 µM
same,TGI,NCI-H522 lung,26.4 µM
same,GI50,U251 CNS,14.1 µM
same,TGI,U251 CNS,29 µM
same,GI50,SK-MEL-5 melanoma,11.7 µM
same,TGI,SK-MEL-5 melanoma,25.1 µM
same,GI50,PC-3 prostate,10.1 µM
same,TGI,PC-3 prostate,25.1 µM
same,GI50,SNB-19 CNS,18.5 µM
same,TGI,SNB-19 CNS,35 µM
same,GI50,COLO 205 colon,14 µM
same,TGI,COLO 205 colon,29.3 µM
same,GI50,SNB-75 CNS,3.37 µM
same,TGI,SNB-75 CNS,10.2 µM
same,GI50,UACC-257 melanoma,15.3 µM
same,TGI,UACC-257 melanoma,28.6 µM
same,GI50,SR leukemia,17 µM
same,TGI,SR leukemia,37.1 µM
same,GI50,SF-539 CNS,21 µM
same,TGI,SF-539 CNS,42.5 µM
same,GI50,UO-31 renal,12.2 µM
same,TGI,UO-31 renal,24.6 µM
same,GI50,RPMI-8226 leukemia,8.75 µM
same,TGI,RPMI-8226 leukemia,39 µM
same,GI50,MDA-MB-231 breast,17.4 µM
same,TGI,MDA-MB-231 breast,39.3 µM
same,GI50,CCRF-CEM leukemia,18.2 µM
same,TGI,CCRF-CEM leukemia,> 100 µM
same,GI50,NCI/ADR-RES ovarian,27.3 µM
same,TGI,NCI/ADR-RES ovarian,> 100 µM
same,GI50,OVCAR-4 ovarian,11.1 µM
same,TGI,OVCAR-4 ovarian,32.3 µM
same,GI50,SF-295 CNS,15.9 µM
same,TGI,SF-295 CNS,30.1 µM
same,GI50,A549 NSCLC,11.7 µM
same,TGI,A549 NSCLC,26.5 µM
same,GI50,MALME-3M melanoma,20.6 µM
same,TGI,MALME-3M melanoma,39.3 µM
same,GI50,DU-145 prostate,14.3 µM
same,TGI,DU-145 prostate,27.4 µM
same,GI50,RXF 393 renal,15.4 µM
same,TGI,RXF 393 renal,29.2 µM
